Marks after values point to notes of the source that are not given here.

21 molecules from patent US8063067B2, “Hexenoic acid derivatives, processes for the preparation thereof, pharmaceutical compositions comprising them, and therapeutic applications thereof” (Merck Patent GmbH, priority 2004, dated 2011) can be followed below.

The target of data set [1] is T1, chimeric protein PPARα-Gal4 (Homo sapiens, UniProt Q07869).
T1 construct: expressed in transfected cells; host or cells: CV-1 cells (monkey kidney cells)
T1 sequence (Q07869 239-466 limits assumed): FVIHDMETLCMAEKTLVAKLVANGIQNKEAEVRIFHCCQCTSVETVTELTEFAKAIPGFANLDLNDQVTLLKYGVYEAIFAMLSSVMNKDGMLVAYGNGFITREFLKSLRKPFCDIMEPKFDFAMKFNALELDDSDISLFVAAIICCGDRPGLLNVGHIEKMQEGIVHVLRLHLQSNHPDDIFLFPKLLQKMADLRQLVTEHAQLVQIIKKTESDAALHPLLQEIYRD
Nature of the data set: PPARα-Gal4 chimera luciferase reporter transactivation in co-transfected CV-1 cells. Type of data set: cell-based. The following applies: CV-1 cells (monkey kidney cells), 18 hours contact, fold relative to control cells without product. As for the experimental part: (§1) The measurement of the PPAR activation was performed according to a technique described by Lehmann et al. (J. Biol. Chem., 270, (1995), 12953-12956).
(§2) CV-1 cells (monkey kidney cells) are co-transfected with an expression vector for the chimeric proteins PPARα-Gal4 or PPARγ-Gal4 and with a “reporter” plasmid that allows the expression of the luciferase gene placed under the control of a promoter comprising Gal4 response elements.
(§3) The cells are plated into 96-well microplates and co-transfected using a commercial reagent with the reporter plasmid (pG5-tk-pGL3) and the expression vector for the chimeric protein (PPARα-Gal4 or PPARγ-Gal4). After incubating for 4 hours, whole culture medium (comprising 10% foetal calf serum) is added to the wells. After 24 hours, the medium is removed and replaced with whole medium comprising the test products (50 μM, 25 μM and 12.5 μM final). The products are left in contact with the cells for 18 hours. The cells are then lysed and the luciferase activity is measured using a luminometer. A PPAR activation factor can then be calculated by means of activation of the expression of the reporter gene induced by the product (relative to the control cells that have not received any product).
(In general: A reporter such as luciferase makes a cellular process visible.)

In data set [2] the target is T2, Gal4 alone (Saccharomyces cerevisiae, UniProt P04386).
T2 construct: expressed in transfected cells; host or cells: CV-1 cells (monkey kidney cells)
T2 sequence (P04386 whole entry, the tested form may be a part): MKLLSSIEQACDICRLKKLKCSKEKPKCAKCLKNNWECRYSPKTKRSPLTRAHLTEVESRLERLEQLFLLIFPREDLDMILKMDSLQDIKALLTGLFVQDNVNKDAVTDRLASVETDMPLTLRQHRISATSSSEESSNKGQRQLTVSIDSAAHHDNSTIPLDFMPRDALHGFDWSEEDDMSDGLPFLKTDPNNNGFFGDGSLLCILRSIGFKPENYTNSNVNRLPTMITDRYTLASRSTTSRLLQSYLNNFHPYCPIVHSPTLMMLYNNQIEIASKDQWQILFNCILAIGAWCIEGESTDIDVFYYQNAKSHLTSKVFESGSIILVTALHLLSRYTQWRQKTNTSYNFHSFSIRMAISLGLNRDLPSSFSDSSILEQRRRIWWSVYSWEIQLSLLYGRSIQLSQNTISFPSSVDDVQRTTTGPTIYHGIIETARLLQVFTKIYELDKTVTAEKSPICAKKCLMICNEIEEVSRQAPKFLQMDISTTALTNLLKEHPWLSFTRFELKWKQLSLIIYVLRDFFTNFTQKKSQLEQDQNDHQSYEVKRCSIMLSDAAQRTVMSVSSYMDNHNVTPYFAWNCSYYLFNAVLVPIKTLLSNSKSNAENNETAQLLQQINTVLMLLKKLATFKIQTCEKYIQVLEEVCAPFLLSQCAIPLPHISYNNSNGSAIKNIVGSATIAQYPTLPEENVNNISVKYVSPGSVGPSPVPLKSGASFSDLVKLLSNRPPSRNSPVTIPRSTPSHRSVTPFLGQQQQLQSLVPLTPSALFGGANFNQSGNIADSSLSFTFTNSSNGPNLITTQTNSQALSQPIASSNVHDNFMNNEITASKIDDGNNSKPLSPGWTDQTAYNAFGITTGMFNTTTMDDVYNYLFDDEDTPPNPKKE
As to the kind of experiment: Luciferase reporter control with vector expressing Gal4 alone (no PPAR ligand binding domain). As to conditions: CV-1 cells. Format: cell-based. The protocol: CV-1 cells (monkey kidney cells) are co-transfected with an expression vector for the chimeric proteins PPARα-Gal4 or PPARγ-Gal4 and with a “reporter” plasmid that allows the expression of the luciferase gene placed under the control of a promoter comprising Gal4 response elements. The cells are plated into 96-well microplates and co-transfected using a commercial reagent with the reporter plasmid (pG5-tk-pGL3) and the expression vector for the chimeric protein (PPARα-Gal4 or PPARγ-Gal4). After incubating for 4 hours, whole culture medium (comprising 10% foetal calf serum) is added to the wells. After 24 hours, the medium is removed and replaced with whole medium comprising the test products (50 μM, 25 μM and 12.5 μM final). The products are left in contact with the cells for 18 hours. The cells are then lysed and the luciferase activity is measured using a luminometer. A PPAR activation factor can then be calculated by means of activation of the expression of the reporter gene induced by the product (relative to the control cells that have not received any product). […] In the absence of the binding domain for the PPAR α or γ ligand (vector expressing Gal4 alone), the luciferase activity measured in the presence of this product is zero.

Data set [3] addresses T3, chimeric protein PPARγ-Gal4 (Homo sapiens, UniProt P37231).
T3 construct: expressed in transfected cells; host or cells: CV-1 cells (monkey kidney cells)
T3 sequence (P37231 238-503 limits assumed): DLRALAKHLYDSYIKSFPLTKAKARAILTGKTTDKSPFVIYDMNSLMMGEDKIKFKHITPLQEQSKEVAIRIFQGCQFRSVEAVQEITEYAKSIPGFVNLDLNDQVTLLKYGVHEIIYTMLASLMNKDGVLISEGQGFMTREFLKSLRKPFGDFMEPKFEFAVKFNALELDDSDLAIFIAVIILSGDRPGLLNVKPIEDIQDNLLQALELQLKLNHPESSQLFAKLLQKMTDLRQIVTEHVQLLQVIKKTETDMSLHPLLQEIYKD
As to the kind of experiment: PPARγ-Gal4 chimera luciferase reporter transactivation in co-transfected CV-1 cells. Format: cell-based. As to conditions: CV-1 cells (monkey kidney cells), 18 hours contact, fold relative to control cells without product. As for the experimental part: as §1, §2, §3

The test system of data set [4] is db/db mice. Nature of the data set: Antidiabetic and hypolipidaemiant activity, oral, db/db mice. As to conditions: oral 100 mg/kg/day. Format: in vivo. As for the experimental part:
The antidiabetic and hypolipidaemiant activity of the compounds was determined orally on db/db mice
17-week-old db/db mice are treated orally for 15 days with the compound of Example 2 (100 mg/kg/day). Each group studied comprises seven animals. After treatment for 15 days, retro-orbital samples are taken under mild anaesthesia and after fasting for four hours.
The following parameters were measured:
Assay of the glycaemia (glucose oxidase) and of the lipid parameters on the sera at D15 (COBAS): triglycerides, total cholesterol (CHOL), HDL cholesterol (HDL-C) and free fatty acids (FFA) (BioMérieux and Waco Chemicals assay kit).
The measurements reported represent mean values±standard error.

[5] abbreviates: 15 days, p < 0.05 versus control.
The mark [6] stands for this setting: serum at D15, mean ± standard error.

As usually defined, the melting point is the temperature of the solid-liquid transition. Regarding `O=C(O)C(CCC1=CCCCC1)Oc1ccc(C(F)(F)F)cc1` (stereo not shown) [Example 2, 4-cyclohex-1-enyl-2-[4-(trifluoromethyl)phenoxy]butanoic acid], the melting point lay within 109 to 111 °C. For the same molecule, the “PPAR activation factor, Chimer α” value in data set [1] (12.5 μM) worked out at 3.6. Moreover, the “PPAR activation factor, Chimer α” value in data set [1] (25 μM) turned out to be 17.2. The “PPAR activation factor, Chimer α” value in data set [1] (50 μM) came out at 24.9. Besides, the “luciferase activity in the absence of the binding domain for the PPAR α or γ ligand” value in data set [2] is “zero”. Further, in data set [3] (12.5 μM), the “PPAR activation factor, Chimer γ” value came out at 2.2. Besides, the “PPAR activation factor, Chimer γ” value in data set [3] (25 μM) was 5.2. Moreover, the “PPAR activation factor, Chimer γ” value in data set [3] (50 μM) came to 9.3. For the same molecule, the Glycaemia in data set [4] (15 days, fasted four hours, mean ± standard error) is 23.23 ± 5.43 mM. For the same molecule, the “CHOL, % var. (percentage of variation versus control)” value in data set [4] (15 days, not significant) is listed as “+28% ns”. The “FFA, % var. (percentage of variation versus control)” value in data set [4] (15 days, p < 0.01 versus control) is −34% **. Besides, in data set [4] (setting [5]), the “Glycaemia, % var. (percentage of variation versus control)” value is reported as −26% *; the “HDL-C, % var. (percentage of variation versus control)” value was “+21% *”; the “Triglycerides, % var. (percentage of variation versus control)” value is on record as −55% *. In data set [4] (setting [6]), the “CHOL (total cholesterol)” value is reported as 6.04 ± 0.61 mM, the “FFA (free fatty acids)” value was 0.48 ± 0.12 mM, the HDL-C amounted to 4.26 ± 0.61 mM and the Triglycerides turned out to be 1.05 ± 0.29 mM.
In turn, `C=CCCC(Oc1ccc(-c2ccc(OC)cc2)cc1)C(=O)O` (stereo not shown) [Example 8] gave a melting point of 128 to 130 °C.
`O=C(O)C(CCC1=CCCCC1)Oc1ccc2oc3ccccc3c2c1` (stereo not shown) [Example 10] returned a melting point of 142 to 144 °C.
Same read-out and setting: for `O=C(O)C(CCC1=CCCC1)Oc1ccc2oc3ccccc3c2c1` (stereo not shown) [Example 11] the value was 140 to 142 °C.
`C=CCCC(Oc1ccc(-c2ccc(F)cc2)cc1)C(=O)O` (stereo not shown) [Example 12] gave a melting point of 97 °C. Also, in data set [1] (12.5 μM), the “PPAR activation factor, Chimer α” value worked out at 4.3. The “PPAR activation factor, Chimer α” value in data set [1] (25 μM) was 13.1. Besides, the “PPAR activation factor, Chimer α” value in data set [1] (50 μM) is listed as 19.9. Besides, the “PPAR activation factor, Chimer γ” value in data set [3] (12.5 μM) came to 1. Besides, the “PPAR activation factor, Chimer γ” value in data set [3] (25 μM) was 3.4. Besides, the “PPAR activation factor, Chimer γ” value in data set [3] (50 μM) was 15.6.
With `O=C(O)C(CCC1=CCCCC1)Oc1ccc(Cl)cc1` (stereo not shown) [Example 13], the “PPAR activation factor, Chimer α” value is 6 in data set [1] (12.5 μM), 4.8 in data set [1] (25 μM) and 12.5 in data set [1] (50 μM). The “PPAR activation factor, Chimer γ” value in data set [3] (12.5 μM) was 7.2; in data set [3] (25 μM), 5.3; in data set [3] (50 μM), 8.5.
Regarding `C=CCCC(Oc1ccc(-c2ccc(Cl)cc2)cc1)C(=O)O` (stereo not shown) [Example 16], the melting point was determined as 127 °C.
The molecule `C=CCCC(Oc1ccc(C(=O)c2ccc(Cl)cc2)cc1)C(=O)O` (stereo not shown) [Example 17] came in with a melting point of 141 °C.
Still for that read-out and setting: for `O=C(O)C(CCC1=CCCCC1)Oc1ccc(-c2cc3ccccc3s2)cc1` (stereo not shown) [Example 18] the value was 171 to 174 °C; for `O=C(O)C(CCC1=CCCCC1)Oc1ccc(-c2ccc(F)cc2)cc1` (stereo not shown) [Example 19], 156 to 158 °C.
Still for that read-out and setting: for `C=CCCC(Oc1ccc(C(F)(F)F)cc1)C(=O)O` (stereo not shown) [Example 86] the value was 70 °C; for `C=CCCC(Oc1ccc(Oc2ccccc2)cc1)C(=O)O` (stereo not shown) [Example 87], 61 °C; for `C=CCCC(Oc1cccc(OCc2ccc3ccccc3n2)c1)C(=O)O` (stereo not shown) [Example 88], 125 °C.
Same read-out and setting: for `C=CCCC(Oc1ccc(-c2csc(C)n2)cc1)C(=O)O` (stereo not shown) [Example 89] the value was 120 °C.
In turn, `C=CCCC(Oc1ccc(-c2cc(C)ccc2C)cc1)C(=O)O` (stereo not shown) [Example 90] yielded a melting point of 95 to 98 °C.
On the same count and under the same terms, for `C=CCCC(Oc1ccc(C(=O)/C=C/c2ccccc2)cc1)C(=O)O` (stereo not shown) [Example 92] the value was 125 °C; for `C=CCCC(Oc1ccc(-c2csc3ccccc23)cc1)C(=O)O` (stereo not shown) [Example 93], 98 °C; for `C=CCCC(Oc1ccc(-c2cc3ccccc3s2)cc1)C(=O)O` (stereo not shown) [Example 94], 183 °C.
The same measure, in the same setting: then `C=CCCC(Oc1ccc(-c2ccc(OC(F)(F)F)cc2)cc1)C(=O)O` (stereo not shown) [Example 95], with 115 to 116 °C; and `C=CCCC(Oc1ccc(-c2cccc(F)c2)cc1)C(=O)O` (stereo not shown) [Example 97], with 110 °C; and `C=CCCC(Oc1ccc(-c2ccc(F)c(F)c2)cc1)C(=O)O` (stereo not shown) [Example 98], with 70 to 72 °C.
